From publication PMC5515971, “Utility of spherical human liver microtissues for prediction of clinical drug-induced liver injury” (Archives of Toxicology, 2017)
“Also recorded” adds a separate entry of the source. Where two headings read alike, the source gives them in different places.

Experiments:
[1] = system: primary human hepatocytes (PHH); test: Cytotoxicity (cellular ATP, CellTiter-Glo) in 2D plated primary human hepatocytes, 48 h treatment; format: cell-based; settings: Hepatocyte; 2D primary human hepatocytes (lot IZT), 48 h treatment, total cellular ATP content; read-out: Geomean IC50;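 also: 384-well plates, luminescence read-out, normalized to vehicle wells with 1% DMSO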
[2] = system: 3D human liver microtissues (hLiMT)
[3] = system: 3D human liver microtissues (hLiMT); test: Cytotoxicity (cellular ATP, CellTiter-Glo 2.0) in 3D human liver microtissues, 14 day repeat-dose treatment; settings: for IC50: Homo sapiens, 336 h
[4] = ref Chen et al 2016 / Chen et al 2011; cited from earlier work
[5] = cited from earlier work
[6] = system: 3D human liver microtissues (hLiMT); test: Cytotoxicity (cellular ATP) in 3D human liver microtissues, 5-6 days treatment; format: cell-based; settings: Homo sapiens; hLiMT, 5/6 days, ATP content; read-out: IC50 SHORT;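 also: Hanging-drop spheroids, seven-point dilution series, re-dosed on day 3, CellTiter-Glo 2.0 luminescence, normalized to 0.5 or 1% DMSO vehicle controls on the same plate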
[7] = cited from earlier work; for DILI category: clinical, from literature and product labels; for P/N (DILI positive / DILI negative): P = DILI severity categories 1, 2 and 3, N = categories 4 and 5
[8] = system: 3D human liver microtissues (hLiMT); test: alpha-GST release into hLiMT supernatant (ELISA); format: cell-based; settings: 336 h, 14 days, release into medium, read-out: IC50 (α-GST assay)
[9] = system: 3D human liver microtissues (hLiMT); test: HMGB1 levels in hLiMT supernatant (ELISA); format: cell-based; settings: 5 days exposure
Procedure: Supernatants from single hLiMT (in triplicates) were analysed for HMGB1 content using IBLs ELISA assay using the high sensitive range test procedure. Briefly, 50 μL of the thawed cell-culture supernatants from single microtissues or diluted standards were incubated in the microtiter plate along with 50 μL of the diluent buffer for 20-24 h at 37 °C in the dark. The plate was then washed 5 times with 400 µL diluted wash buffer (1:5), blotted dry and 100 µL enzyme conjugate added. After incubation in the dark for 2 h at 25 °C the plate was washed 5 times with 400 µL diluted wash buffer, blotted dry and then 100 µL colour solution added. The plate was incubated for a further 30 min at room temperature prior to the addition of 100 µL stop solution. The absorbance was then determined at 450 nm using an EnVision® plate reader (PerkinElmer, Waltham, MA, USA) within 60 min. The concentration of HMGB1 in the samples was read off the high sensitivity range standard curve obtained from plotting the OD of the standards against the concentration (ng/L).

[10] = system: 3D human liver microtissues (hLiMT); test: miR-122 levels in hLiMT supernatant (qRT-PCR); format: cell-based; settings: 5 days exposure
Procedure: miRNA extraction miRNA was extracted using a miRNeasy kit, following the manufacturer's instructions, and as described by Starkey et al. 2016 with minor modifications. Thirty-eight µL thawed hLiMT supernatant was mixed with 162 µL nuclease-free water and 700 µL QIAzol reagent and then incubated for 5 min at room temperature. Chloroform (100 µL) was added, the samples shaken vigorously for 15 sec and then centrifuged at 12,000 g for 15 min at 4 °C. The supernatant was then mixed with 500 µL 70% ethanol and transferred to a miRNeasy minispin column. The column was centrifuged at >8000 g for 15 sec. The elute was then purified using a MinElute kit
miRNA purification The small RNA elution mixture was applied to the MinElute column 700 µL at a time. […]
qRT-PCR One µl thawed cDNA was mixed with 19 µl miR-122 or cel-lin4 PCR reaction master mix containing 1 µL Taqman^TM miR-122 or cel-lin4 primer small RNA assay (20X), 10 µl Taqman^TM universal PCR master mix II (2X) and 8 µL nuclease free water. Levels of miRNA were measured by the fluorescent signal produced from the Taqman probes on an ABI Prism 7000 (Applied Biosystems). miRNA levels were normalized to levels of cel-lin4 miRNA. Relative miRNA production was determined with the ΔCt method and reported as 2−ΔCt, where Ct is the threshold cycle. Differences in miRNA concentration were expressed as fold changes relative to control.

[11] = set-up: method as in Russmann et al. [2005]; settings: patients; ref Russmann et al. [2005]; cited from earlier work
[12] = Clinical DILI severity categorization and DILI pattern; settings: P = DILI severity categories 1, 2 and 3; N = categories 4 and 5
BSEP transporter = system: BSEP transporter; set-up: method as in Kenna et al. [2015]; settings: ref Kenna et al. [2015]; cited from earlier work
[13] = Hepatocyte, read-out: Geomean IC50 [µM]
[14] = human Cmax total, used for IC50/Cmax
[15] = Table 1, ref Garside et al. (2014)
[16] = clinical DILI severity category, 1-5
[17] = table S-4, ref Garside et al. 2014
[18] = table S-5, ref Garside et al. 2014
[19] = human total plasma Cmax, ref literature values

IC50 [8] [µM] | SMILES | IC50 [1] [µM] | Geomean IC50/cmax [2] | IC50 [3, 13] [µM] | FDA DILI Classification DILI severity score [4] | LTKB DILI classification [4] | Cmax [5, 14] [nM] | IC50 [6] [µM] | IC50 ([3]; read-out: IC50 (ATP-assay)) [µM] | IC50 ([3]; read-out: IC50 LONG) [µM] | DILI severity category [7, 15] | DILI severity category [7, 16] | DILI category ([7]; ref Garside et al. 2014) | DILI severity category [7, 17] | DILI severity category [7, 18] | Cmax [5, 19] [nM] | further results
– | Nc1c2c(nc3ccccc13)CCCC2 [Tacrine] | 106 | 696.2 | ~69.6 | – | – | – | – | – | – | – | – | – | – | – | – | –
14 | Cc1c(C)c2c(c(C)c1O)CCC(C)(COc1ccc(CC3SC(=O)NC3=O)cc1)O2 (stereo not shown) [Troglitazone] | > 100 | – | ~14.6 | 8 | most DILI concern | 6400 | 25.6 | 10.8 | 14.6 | 1: Severe clinical DILI (N = 23) | 1. Severe Clinical DILI | 1. Severe Clinical DILI | 1 | 1. Severe Clinical DILI | – | –
45.4 | CN(C)CCCN1c2ccccc2Sc2ccc(Cl)cc21 [Chlorpromazine] | 19.2 | – | ~7.4 | 2 | less DILI concern | 940 | 10.9 | 7 | 7.1 | 3: Low clinical DILI concern (N = 23) | 3. Low Clinical DILI Concern | 3. Low Clinical DILI Concern | 3 | 3. Low Clinical DILI Concern | 940 | release of HMGB1 [9]: dose-dependent release; release of miR-122 [10]: dose-dependent release
– | CC(COc1ccccc1)N(CCCl)Cc1ccccc1 (stereo not shown) [Phenoxybenzamine] | > 50 | > 126.9 | > 25 | – | – | – | – | – | – | – | – | – | – | – | 200 | –
– | CC(C)c1nc(N(C)S(C)(=O)=O)nc(-c2ccc(F)cc2)c1/C=C/[C@@H](O)C[C@@H](O)CC(=O)O [Rosuvastatin] | > 100 | – | 7.8 | 3 | less DILI concern | 10 | 34.2 | – | – | 3: Low clinical DILI concern (N = 23) | 3. Low Clinical DILI Concern | 3. Low Clinical DILI Concern | 3 | – | 10 | mild, transient elevations of plasma enzyme levels [11]: 1–3%
62.4 | Cc1ccc(C(=O)c2cc(O)c(O)c([N+](=O)[O-])c2)cc1 [Tolcapone] | 158 | – | ~19 | 8 | most DILI concern | 47600 | 30.1 | 19.3 | 15.5 | 1: Severe clinical DILI (N = 23) | 1. Severe Clinical DILI | 1. Severe Clinical DILI | 1 | 1. Severe Clinical DILI | 47600 | –
– | COC(c1ccccc1)(c1ccccc1)[C@H](Oc1nc(C)cc(C)n1)C(=O)O [Ambrisentan] | > 100 | – | > 100 | 7 | Ambiguous DILI concern | 790 | – | – | – | 5: No DILI (N = 25) | 5. No DILI | 5. No DILI | – | – | 790 | P/N (DILI positive / DILI negative) [12]: N; cytotoxicity ([3]; hLiMT 14 days, in words): did not detect cytotoxicity; also recorded: not cytotoxic; P/N (DILI positive / DILI negative) [7]: N; fold lower potency to inhibit BSEP transporter function than bosentan (BSEP transporter): 10 fold; fold lower potency to inhibit BSEP transporter function than sitax(s)entan (BSEP transporter): 30 fold
– | Nc1nc(F)nc2c1ncn2[C@@H]1O[C@H](CO)[C@@H](O)[C@@H]1O [Fludarabine] | > 50 | 39.9 | 6.8 | 0 | no DILI concern | 170 | – | – | – | 4: Enzyme elevations in clinic (N = 16) | 4. Enzyme Elevations in Clinic | 4. Enzyme Elevations in Clinic | – | – | 170 | P/N (DILI positive / DILI negative) [12]: N; P/N (DILI positive / DILI negative) [7]: N
